Experiments:
[1] = test system: E. Coli; experiment: E. Coli cultures exposed 45 minutes at 37° C., plate counts; format: cell-based; details: peroxide 5 g/l and/or ASP 1 3 g/l; for Counts recorded: 45 minutes at 37° C., controls 40×10^8 (time zero), 37×10^8 (45 minutes), average of three; for reduction in bacteria count / kill: 45 minutes treatment at 37° C.
Method: Cultures of E. Coli in Ringer's saline were exposed to various conditions for 45 minutes at 37° C. These were then serially diluted (eight 10-fold dilutions) and plated onto nutrient agar (treatments were done in triplicate to ensure reproducibility), and five tests were done overall as shown below. Initial E. Coli concentration was approximately 5×10^9/ml and cultures were grown in nutrient broth overnight before being centrifuged and then re-suspended in saline. A E. Coli control-time zero. B E. Coli control-time 45 minutes C E. Coli plus peroxide at 5 g/l for 45 minutes D E. Coli plus […] at 3 g/l for 45 minutes E E. Coli plus peroxide of 5 g/l plus […] (3 g/l) for 45 minutes Plates were observed and counted after 2 days incubation at 37° C.

[2] = Bleaching of dye solutions (degree of dye removal); details: activator 2 g/l
Method: The bleaching solution was prepared as follows: […] Bleach activator 2 g/l […] Total volume 25 ml pH 3 was obtained with acetic acid; pH 7 was obtained with sodium dihydrogen phosphate (0.1M) and sodium hydroxide (0.1M); pH 10 was obtained using sodium carbonate. […] The degree of dye removal or bleaching (R %) was calculated using the following equation: % R=1-(A2/A1)×100 […]

With `NC(=O)S(=O)(=O)O` [ASP 1] the Counts recorded [1] was 7.9×10^8 colony forming units ml^−1 and the “reduction in bacteria count / kill” value [1] was “about 80%”.

For `OO` [H2O2, Hydrogen peroxide], the Counts recorded [1] was 12.9×10^8 colony forming units ml^−1, the “reduction in bacteria count / kill” value [1] was roughly 66% and the “degree of dye removal % R” value ([2]; pH 3, 20° C., 3 hours) was 3.3%. The “degree of dye removal % R” value ([2]; pH 3, 20° C., 24 hours) was 85%, the “degree of dye removal % R” value ([2]; pH 7, 20 C., 3 hours) was 2.7% and the “degree of dye removal % R” value ([2]; pH 7, 20 C., 24 hours) was 7.1%. The “degree of dye removal % R” value ([2]; pH 10, 20°C., 3 hours) was 11.3% and the “degree of dye removal % R” value ([2]; pH 10, 20°C., 24 hours) was 24.8%.

Reference: patent publication US20040055092A1, “Use of percarbamic acids and diacyl percarbamates and precursors therefor” (priority 2000, published 2004)
